Measurements reported in BindingDB's records for patent US12138263 (Relay Therapeutics, 2024).

Biological target: T1, Tyrosine-protein phosphatase non-receptor type 11 (Homo sapiens, UniProt Q06124)
T1 sequence (Q06124 whole entry): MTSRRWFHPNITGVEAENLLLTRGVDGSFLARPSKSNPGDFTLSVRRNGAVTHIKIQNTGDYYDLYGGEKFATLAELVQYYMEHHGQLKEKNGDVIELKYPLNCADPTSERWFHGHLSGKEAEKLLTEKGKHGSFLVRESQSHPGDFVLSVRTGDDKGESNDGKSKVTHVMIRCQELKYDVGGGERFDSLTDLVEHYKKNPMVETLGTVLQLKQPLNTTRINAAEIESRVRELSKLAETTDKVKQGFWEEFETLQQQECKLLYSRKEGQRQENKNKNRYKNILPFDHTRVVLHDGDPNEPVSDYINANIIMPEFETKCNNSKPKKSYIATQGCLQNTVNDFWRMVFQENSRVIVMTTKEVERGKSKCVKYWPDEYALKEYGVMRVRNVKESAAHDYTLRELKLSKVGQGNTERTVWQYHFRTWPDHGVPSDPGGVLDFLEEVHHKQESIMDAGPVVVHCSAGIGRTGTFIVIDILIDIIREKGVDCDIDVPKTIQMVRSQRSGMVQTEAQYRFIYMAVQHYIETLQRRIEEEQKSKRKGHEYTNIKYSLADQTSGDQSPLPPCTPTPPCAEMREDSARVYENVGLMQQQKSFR
Test: SPH2 Allosteric Inhibition Assay and Binding

Question: CC1(CN)CCN(c2cnc3c(N4CCCc5c4cccc5S(=O)(=O)F)n[nH]c3n2)CC1 [US12138263, Compound 5A] was tested. Which IC50 did it give?
Answer: Its IC50 is less than 1 µM.
